From the supplement of paper PMC11061612

Legend:
[1] = compound: CC(=O)c1c(C)c2cnc(Nc3ccc(N4CCNCC4)cn3)nc2n(C2CCCC2)c1=O [Palbociclib]; conditions: max 10 µM
Outline: (§1)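 In 1536-well plates, cancer cell lines in 7.5 μl DMEM/F12 or RPMI with 10% FBS spent 24 hours at 37°C and 5% CO2 and were then dosed for 72 hours with final DMSO typically 0.2%. Viability was read by CellTiter-Glo 2.0 luminescence and scaled between blank-well and DMSO-well means. The single-agent IC50 was fitted from dose responses using a logistic curve in a non-linear mixed effects model, and that logistic curve had two parameters.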

[2] = compound: CC(C)n1c(=O)n(C)c2cnc3cc(F)c(-c4ccc(OCCCN5CCCCC5)nc4)cc3c21 [AZD1390]; conditions: max 0.3 µM
Outline: as §1

[3] = compound: C1CC(C1)(C(=O)[O-])C(=O)[O-].N.N.[Pt+2] [Carboplatin]; conditions: max 10 µM
Outline: as §1

[4] = compound: C[C@@H](Nc1cc(F)cc(F)c1)c1cc(C(=O)N(C)C)cc2c(=O)cc(N3CCOCC3)oc12 [AZD8186]; conditions: max 10 µM
Outline: as §1

[5] = compound: Cc1cc2ncnn2cc1Nc1ncc2c(n1)n(C1CCOCC1)c(=O)n2C [AZD7648]; conditions: max 10 µM
Outline: as §1

[6] = compound: COc1cc(Nc2ncc3c(n2)-c2ccc(Cl)cc2C(c2c(F)cccc2OC)=NC3)ccc1C(=O)O [Alisertib]; conditions: max 10 µM
Outline: as §1

[7] = compound: CC1(C)CCC(CN2CCN(c3ccc(C(=O)NS(=O)(=O)c4ccc(NCC5CCOCC5)c([N+](=O)[O-])c4)c(Oc4cnc5[nH]ccc5c4)c3)CC2)=C(c2ccc(Cl)cc2)C1 [Venetoclax]; conditions: max 1 µM
Outline: as §1

[8] = compound: CC1=C(C(=CC=C1)Cl)NC(=O)C2=CN=C(S2)NC3=CC(=NC(=N3)C)N4CCN(CC4)CCO [Dasatinib]; conditions: max 2 µM
Outline: as §1

[9] = compound: C=CCn1c(=O)c2cnc(Nc3ccc(N4CCN(C)CC4)cc3)nc2n1-c1cccc(C(C)(C)O)n1 [AZD1775]; conditions: max 3 µM
Outline: as §1

[10] = compound: C[C@@H](Oc1cc(-c2cnn(C3CCNCC3)c2)cnc1N)c1c(Cl)ccc(F)c1Cl [Crizotinib]; conditions: max 10 µM
Outline: as §1

[11] = compound: O=c1[nH]cc(F)c(=O)[nH]1 [5-Fluorouracil]; conditions: max 20 µM
Outline: as §1

[12] = compound: CC(=O)Nc1cccc(-n2c(=O)n(C3CC3)c(=O)c3c(Nc4ccc(I)cc4F)n(C)c(=O)c(C)c32)c1 [Trametinib]; conditions: max 1 µM
Outline: as §1

[13] = compound: CN(C)CCCOc1ccc(-c2ccc3ncc4c(c3c2)n(C2CCOCC2)c(=O)n4C)cn1 [AZD0156]; conditions: max 3 µM
Outline: as §1

[14] = compound: CCc1c2c(nc3ccc(O)cc13)-c1cc3c(c(=O)n1C2)COC(=O)[C@]3(O)CC [SN-38]; conditions: max 0.3 µM
Outline: as §1

[15] = compound: NC1(c2ccc(-c3nc4ccn5c(=O)[nH]nc5c4cc3-c3ccccc3)cc2)CCC1 [MK-2206]; conditions: max 10 µM
Outline: as §1

[16] = compound: CCN(CCO)CCCOc1ccc2c(Nc3cc(CC(=O)Nc4cccc(F)c4)[nH]n3)ncnc2c1 [AZD2811]; conditions: max 1 µM
Outline: as §1

[17] = compound: C[C@@H](c1ccc2nccn2c1)n1nnc2ncc(-c3cnn(C)c3)nc21 [Savolitinib]; conditions: max 1 µM
Outline: as §1

[18] = compound: Cc1c2c(nn1C)CSCc1cc(n(C)n1)CSc1cc(c3ccccc3c1)OCCCc1c(C(=O)O)n(C)c3c-2c(Cl)ccc13 [AZD5991]; conditions: max 1 µM
Outline: as §1

[19] = compound: O=C(Nc1ccc2[nH]nc(-c3ccncc3)c2c1)[C@@H]1CCN(CC(=O)N2CCN(c3ccc(-c4ncccn4)cc3)CC2)C1; conditions: max 5 µM
Outline: as §1

[20] = compound: COc1cc2ncnc(Nc3ccc(F)c(Cl)c3)c2cc1OCCCN1CCOCC1 [Gefitinib]; conditions: max 10 µM
Outline: as §1

[21] = compound: COc1cccc(OCCCN)c1-c1cc(Nc2cnc(C#N)cn2)n[nH]1 [Prexasertib]; conditions: max 1 µM
Outline: as §1

[22] = compound: COc1cc([C@@H]2c3cc4c(cc3[C@@H](O[C@@H]3O[C@@H]5CO[C@@H](C)O[C@H]5[C@H](O)[C@H]3O)[C@H]3COC(=O)[C@H]23)OCO4)cc(OC)c1O [Etoposide]; conditions: max 10 µM
Outline: as §1

[23] = compound: CC(=O)O[C@H]1C(=O)[C@@]2(C)[C@H]([C@H](OC(=O)c3ccccc3)[C@]3(O)C[C@H](OC(=O)[C@H](O)[C@@H](NC(=O)c4ccccc4)c4ccccc4)C(C)=C1C3(C)C)[C@]1(OC(C)=O)CO[C@@H]1C[C@@H]2O [Paclitaxel]; conditions: max 3 µM
Outline: as §1

[24] = compound: COc1nnc2ccc(N3CCC(c4ccc(OCCN5CCN(C)C(=O)[C@H]5C)cc4)CC3)nn12 [AZD5153]; conditions: max 1 µM
Outline: as §1

[25] = compound: O=C(c1cc(Cc2n[nH]c(=O)c3ccccc23)ccc1F)N1CCN(C(=O)C2CC2)CC1 [Olaparib]; conditions: max 10 µM
Outline: as §1

[26] = compound: CS(=O)(=O)CCNCc1ccc(-c2ccc3ncnc(Nc4ccc(OCc5cccc(F)c5)c(Cl)c4)c3c2)o1 [Lapatinib]; conditions: max 10 µM
Outline: as §1

[27] = compound: Cn1cnc2c(F)c(Nc3ccc(Br)cc3Cl)c(C(=O)NOCCO)cc21 [Selumetinib]; conditions: max 10 µM
Outline: as §1

[28] = compound: C[C@@H]1COCCN1C2=NC(=NC(=C2)C3(CC3)[S@](=N)(=O)C)C4=C5C=CNC5=NC=C4 [AZD6738]; conditions: max 10 µM
Outline: as §1

[29] = compound: Cc1nc(-c2cn3c(n2)-c2ccc(-c4cnn(C(C)(C)C(N)=O)c4)cc2OCC3)n(C(C)C)n1 [Taselisib]; conditions: max 10 µM
Outline: as §1

[30] = compound: C1CN(CCC1(C(=O)N[C@@H](CCO)C2=CC=C(C=C2)Cl)N)C3=NC=NC4=C3C=CN4 [AZD5363]; conditions: max 10 µM
Outline: as §1

[31] = compound: CN(CC[C@H](CSC1=CC=CC=C1)NC2=C(C=C(C=C2)S(=O)(=O)NC(=O)C3=CC=C(C=C3)N4CCC(CC4)[C@H](C5=CC=CC=C5C6=CC=C(C=C6)Cl)O)S(=O)(=O)C(F)(F)F)CCO [AZD4320]; conditions: max 1 µM
Outline: as §1

[32] = compound: N#Cc1cnc(Nc2cc(NC[C@H]3CNCCO3)c(C(F)(F)F)cn2)cn1 [SRA737]; conditions: max 10 µM
Outline: as §1

[33] = compound: Nc1ccn([C@@H]2O[C@H](CO)[C@@H](O)C2(F)F)c(=O)n1 [Gemcitabine]; conditions: max 0.3 µM
Outline: as §1

[34] = compound: COc1cccc2c1C(=O)c1c(O)c3c(c(O)c1C2=O)C[C@@](O)(C(=O)CO)C[C@@H]3O[C@H]1C[C@H](N)[C@H](O)[C@H](C)O1 [Doxorubicin]; conditions: max 1 µM
Outline: as §1

[35] = compound: CC1=CN2[C@@H](C1)C=NC3=CC(=C(C=C3C2=O)OC)OCCCCCOC4=C(C=C5C(=C4)N=C[C@@H]6CC(=CN6C5=O)C)OC [SG3199]; conditions: max 0.001 µM
Outline: as §1

Row | Cell Line | IC50, cell viability 72 h [1] [µM] | IC50, cell viability 72 h [2] [µM] | IC50, cell viability 72 h [3] [µM] | IC50, cell viability 72 h [4] [µM] | IC50, cell viability 72 h [5] [µM] | IC50, cell viability 72 h [6] [µM] | IC50, cell viability 72 h [7] [µM] | IC50, cell viability 72 h [8] [µM] | IC50, cell viability 72 h [9] [µM] | IC50, cell viability 72 h [10] [µM] | IC50, cell viability 72 h [11] [µM] | IC50, cell viability 72 h [12] [µM] | IC50, cell viability 72 h [13] [µM] | IC50, cell viability 72 h [14] [µM] | IC50, cell viability 72 h [15] [µM] | IC50, cell viability 72 h [16] [µM] | IC50, cell viability 72 h [17] [µM] | IC50, cell viability 72 h [18] [µM] | IC50, cell viability 72 h [19] [µM] | IC50, cell viability 72 h [20] [µM] | IC50, cell viability 72 h [21] [µM] | IC50, cell viability 72 h [22] [µM] | IC50, cell viability 72 h [23] [µM] | IC50, cell viability 72 h [24] [µM] | IC50, cell viability 72 h [25] [µM] | IC50, cell viability 72 h [26] [µM] | IC50, cell viability 72 h [27] [µM] | IC50, cell viability 72 h [28] [µM] | IC50, cell viability 72 h [29] [µM] | IC50, cell viability 72 h [30] [µM] | IC50, cell viability 72 h [31] [µM] | IC50, cell viability 72 h [32] [µM] | IC50, cell viability 72 h [33] [µM] | IC50, cell viability 72 h [34] [µM] | IC50, cell viability 72 h [35] [µM]
1 | KARPAS-299 (T-Cell Non-Hodgkin's Lymphoma) | > 10 | > 0.3 | > 10 | > 10 | > 10 | > 10 | 0.708 | > 2 | 0.459 | 0.846 | 4.46 | > 1 | > 3 | 0.0357 | > 10 | > 1 | > 1 | 0.326 | > 5 | > 10 | 0.00515 | 3.37 | 0.0306 | 0.115 | > 10 | > 10 | > 10 | 0.698 | > 10 | > 10 | > 1 | 1.13 | 0.0266 | 0.523 | > 0.001
2 | KYSE-450 (Esophageal Squamous Cell Carcinoma) | > 10 | > 0.3 | > 10 | > 10 | > 10 | > 10 | > 1 | > 2 | 0.614 | > 10 | > 20 | > 1 | > 3 | > 0.3 | > 10 | > 1 | > 1 | > 1 | > 5 | > 10 | 0.226 | > 10 | 0.0677 | > 1 | > 10 | > 10 | > 10 | > 10 | 7.52 | > 10 | > 1 | > 10 | > 0.3 | > 1 | > 0.001
3 | LU-65 (Non-Small Cell Lung Carcinoma) | > 10 | > 0.3 | > 10 | > 10 | > 10 | > 10 | > 1 | > 2 | 0.77 | 7.51 | > 20 | 0.0529 | > 3 | 0.0491 | > 10 | > 1 | > 1 | > 1 | 0.35 | > 10 | 0.0896 | > 10 | 0.0321 | > 1 | > 10 | > 10 | 1.65 | 3.97 | 3.01 | > 10 | > 1 | 4.3 | > 0.3 | 0.341 | > 0.001
4 | MIA-PaCa-2 (Pancreatic Carcinoma) | > 10 | > 0.3 | > 10 | > 10 | > 10 | 3.49 | > 1 | > 2 | > 3 | > 10 | > 20 | 0.15 | > 3 | 0.0146 | > 10 | > 1 | > 1 | > 1 | 2.11 | > 10 | 0.0674 | 2.89 | 0.0395 | 0.165 | > 10 | > 10 | 3.37 | 8.72 | > 10 | > 10 | > 1 | > 10 | 0.101 | 0.183 | > 0.001
5 | MLMA (Other Blood Carcinomas) | > 10 | > 0.3 | > 10 | 2.94 | > 10 | 6.31 | 0.272 | 0.548 | 0.144 | 9.93 | > 20 | > 1 | > 3 | 0.0163 | 1.76 | > 1 | > 1 | > 1 | > 5 | > 10 | 0.00219 | 2.2 | 0.0137 | 0.0555 | > 10 | > 10 | > 10 | 4.31 | 0.982 | 8.83 | > 1 | 0.934 | 0.0228 | 0.116 | > 0.001
